Measurements published in patent US20180333386A1, “AGENTS USEFUL FOR TREATING FRIEDREICH'S ATAXIA AND OTHER NEURODEGENERATIVE DISEASES” (IXCHEL PHARMA LLC, priority 2011, published 2018).
Entries after “also recorded” stand apart in the source; their conditions may differ. Structures can show the parent of a compound that is named as a salt.

Columns and labels:
[1] = system: frataxin deficient 50B11 dorsal root ganglion cell line; assay: Thiol-antioxidant inhibitors in siRNA-mediated frataxin deficient 50B11 dorsal root ganglion cell line; type: cell-based; conditions: for death of neurons with frataxin deficiency on treatment: siRNA frataxin knockdown vs. control
Description: Therefore, 11 inhibitors of these antioxidants were tested in siRNA-mediated frataxin deficient 50B11 dorsal root ganglion cell line. […] The major mitochondrial antioxidant system is thioredoxin reductase. Auranofin is a specific inhibitor of thioredoxin reductase, and diamide is a known oxidizer of thioredoxin. Thus the diamide screen identifies compounds that rescue from thioredoxin reductase deficiency, which include inducers of Nrf2, which are known to induce thioredoxin reductase and other antioxidant functions.

[2] = system: frataxin (FXN) protein in YG8 FRDA transgenic mouse; assay: Frataxin level in YG8 FRDA transgenic mouse model (Western blot of cerebellum and splenocytes); type: in vivo; conditions: for FXN expression in vivo, FXN/actin densitometry: hemizygous YG8 mice; for frataxin in brains and other tissues of the animal model of FRDA: result in words
Description: Dyclonine increases frataxin levels in vivo. To determine ability of dyclonine to reverse the in vivo FXN protein defect, the YG8 FRDA transgenic mouse model was chosen. Hemizygous animals with the least frataxin were separated into vehicle and treatment groups. Homozygous mice (two copies of FXN gene) were used as positive control. Animals were dosed daily with 1 mg/kg dyclonine via intraperitoneal injection for 6 days. At the end of the study, the animals were sacrificed, and processed for biochemical analysis, i.e. Western blots of treated and vehicle groups of Cerebellum and splenocyte frataxin level. Western blot of cerebellum and splenocytes is shown (FIG. 6A) and densitometry of FXN/actin normalization (FIG. 6B) showing dyclonine induces FXN expression in vivo by 1.5-2 fold.
Of these 20, 8 were tested in the YG8 transgenic mouse model. […] Animals were dosed daily with 1-10 mg/kg drug via intraperitoneal injection for 6 days. At the end of the study, the animals were sacrificed, and processed for biochemical analysis, i.e. Western blots (protocol above) of treated and vehicle groups of Cerebellum and splenocyte frataxin level. Western blot of cerebellum is shown (FIG. 7B) and densitometry of FXN/actin normalization (FIG. 7A) showing dimethyl fumarate, dyclonine, methylene blue, and nifursol induce FXN expression in vivo by 1.5-2 fold.
To determine ability of dimethyl fumarate to reverse the in vivo FXN protein defect, the YG8 FRDA transgenic mouse model was chosen. Hemizygous animals with largest FXN defect, were separated into vehicle and treatment groups. Homozygous mice were used as positive control. Animals were dosed daily with 5 mg/kg dimethyl fumarate via intraperitoneal injection for 6 days. A non-specific HDAC inhibitor was used as a positive control, dosed at 1 mg/kg. At the end of the study, the animals were sacrificed, and processed for biochemical analysis, i.e. Western Blots of treated and vehicle groups of cerebellum and splenocyte frataxin level.

[3] = system: frataxin (FXN) protein in HeLa cells; assay: Frataxin protein level in HeLa cells by Western blot; type: cell-based, human
Description: (§1) To test if one mechanism of protection from diamide toxicity for dyclonine was an increase in frataxin protein levels, HeLa cells or FRDA patient lymphoblasts were cultured for 48 hr in the presence of 10 micromolar dyclonine in 6 well dishes. Cells were harvested and whole cell lysates were analyzed by Western blot (protocol below). Representative blots are shown for HeLa cells (FIG. 5A) and FRDA and healthy siblings lymphoblasts (FIG. 5B), as well as densitometry normalization to actin. Dyclonine induction of FXN levels was consistent over multiple experiments (FIG. 5C).
(§2) Western Blot Protocol: Forty micrograms of whole-cell lysates were analyzed on […] Bis-Tris gels (Invitrogen, Carsbad, Calif., USA). Electrophoresis was carried out according to the manufacturer's instruction. After electrophoresis, the proteins were transferred to nitrocellulose membranes by iBlot device (Invitrogen). The membranes were blocked with blocking buffer (Odyssey, Lincoln, Nebr., USA) for 1 h and incubated overnight with primary antibodies in blocking buffer: anti-frataxin anti-β-actin, tubulin, (Sigma). Afterwards, the membranes were incubated with a corresponding pair of IRDye 680CW- and IRDye 800CW-coupled (Odyssey) secondary antibodies for 1 h. The membranes were washed four times with 1× Tris-buffered saline with Tween 20 and proteins were visualized with a LI-COR infrared imager (Odyssey). The pictures were processed by Odyssey version 3.0 infrared imaging software.
(§3) An additional hit in the diamide screening assay in FRDA fibroblasts was dimethyl fumarate (protocol above). […] To test if the mechanism of protection from diamide toxicity was an increase in frataxin protein levels, HeLa cells or FRDA patient lymphoblasts were cultured for 48 hr in the presence of 0.03-30 micromolar dimethyl fumarate in 12-well dishes. Cells were harvested and whole cell lysates were analyzed by Western blot (protocol above). Representative blots are shown for HeLa cells (FIG. 9A) and FRDA lymphoblasts (FIG. 9B). FXN was induced 1.37 fold ±0.1 (n=3) in HeLa cells, and 2.4 fold ±0.9 (n=3) in FRDA lymphoblasts.

[4] = system: Nrf2 target antioxidant response element (ARE); assay: Nrf2/ARE luciferase assay in reporter HeLa cell line; type: cell-based, human; conditions: for Nrf2/ARE activity (ARE-luciferase): 24 hours, threshold mean+2× Standard deviation of the vehicle control
Description: To evaluate the mechanism of FXN induction of the […] that protected from diamide, the potency of each to activate the Nrf2 target antioxidant response element (ARE) was evaluated. 10 of the 20 frataxin inducers interacted with the Nrf2 pathway in a significant way, either positively or negatively. The dashed line=mean+2×SD. […] Dyclonine's induction of ARE/Nrf2 activity was dose-dependent (FIG. 13B).
The Nrf2 reporter HeLa cell line was generated using the Lenti Antioxidant Response Reporter (Qiagen, Valencia, Calif.) system, which expressed firefly luciferase gene and the ARE transcriptional response element. 15,000 cells/well were plated in 90 ul in phenol-free DMEM media in white wall/bottom 96 well plates. Drugs were added and plates incubated at 37 C for 24 hours. 75 microliters of Bright Glo Luciferase Assay Reagent (Promega, Madison, Wis.) with combined lysis solution was added to all wells and allowed to incubate for 5 minutes at room temperature. Luminescence was then read with a PolarStar Omega plate reader (BMG LabTech, Cary, N.C.).

[5] = system: human FRDA patient fibroblasts; assay: Diamide screening assay: protection of FRDA patient fibroblasts from diamide toxicity (Calcein-AM viability); type: cell-based; conditions: for protection from diamide toxicity: 200 micromolar diamide, result in words; for EC50: Homo sapiens, Fibroblast; for EC50 / maximum effect of protection from diamide toxicity, fold increase from baseline: n=3; for maximum effect of protection from diamide toxicity, fold increase from baseline: dose-response
Source text: The cell-based assay was further optimized for high-throughput screening in 96-well plates, with an excellent screening window and low variability, represented by a Z′ value of 0.75 (n=5) and was used to screen a library of 1600 drugs that have been approved for clinical use in the USA. Drugs that rescued at DMSO mean+two standard deviations were repeated an additional two times. Compounds that rescued in >2 screens advanced to secondary screening, which included replication of protective effect in a concentration-dependent manner, 0.01-10 μM. […] Additional mechanisms are listed below.
Diamide Screening Method Format: On the day one of the assay, cell density was determined using the Vi-Cell counter, and a volume corresponding to 5,500 human FRDA patient fibroblasts per well was aliquoted into 96-well black/clear poly-d-lysine coated plates in growth media, and the cells were allowed 3 hours to attach. Drugs (10 mM stock in DMSO) are dispensed into wells after an intermediate dilution in PBS, giving a final DMSO concentration of 0.1% using an electronic multichannel pipette. Test compounds were tested at 10 micromolar. There were 8 negative control (0.1% DMSO only) and 8 positive control (300 micromolar DTT) wells on each plate. Plates were incubated at 37 C and 5% CO2 for twenty-four hours after which 200 micromolar diamide was added to all wells. Plates were incubated for an additional 16 hours as before. Cells were washed with PBS and incubated with Calcein-AM cell viability dye (Invitrogen, Carlsbad, Calif., USA) and fluorescence was read with a PolarStar Omega plate reader (BMG LabTech, Cary, N.C.). Hits were scored as Basal Median+3×MAD.

[6] = system: frataxin (FXN) protein in FRDA patient lymphoblasts; assay: Frataxin protein level in FRDA patient lymphoblasts by Western blot; type: cell-based, human; conditions: 48 hr
Description: as §1, §2, §3
An additional hit in the diamide screening assay (protocol above) in FRDA fibroblasts was the phenathiazine, tolonium cl. […] To test if the mechanism of protection from diamide toxicity was an increase in frataxin protein levels, the phenothiazines tolonium cl and methylene blue were tested. […] Cells were harvested and whole cell lysates were analyzed by Western blot (protocol above). […]
To test if Methylene blue also potentiates DMF-mediated FXN induction, FRDA patient lymphoblasts were cultured for 48 hr in the presence of 3 micromolar dimethyl fumarate and 3 micromolar methylene blue in 6 well dishes. Cells were harvested and whole cell lysates were analyzed by Western blot (protocol above).

[7] = system: frataxin (FXN) protein in FRDA lymphoblasts; assay: In-cell Western of FXN in FRDA lymphoblasts (synergy of FXN-inducing drugs); type: cell-based, human; conditions: 5 micromolar dyclonine with dose-response of dimethyl fumarate, 48 hours
Description: To evaluate potential synergy of identified FXN-inducing drugs, a dose-response of dimethyl fumarate in the absence or presence of 5 micromolar dyclonine was determined in FRDA lymphoblasts incubated for 48 hours in 96 well plates. Whole cells were fixed and permeabilized and for analyzed using in-cell Western technique (protocol below).
In-Cell Western Blot Protocol: 50,000 cells/well were plated in black walled clear bottom 96-well poly-d-lysine coated plates. After drug treatment, media was removed by aspiration and cells were fixed by addition of 100 ul/well of 3.7% formaldehyde in PBS. After 30 minutes, fixing solution was removed and 100 ul/well of 0.1% TritonX100 in PBS was added to all wells. After 40 minutes, cells were blocked with 100 ul blocking buffer (Odyssey, Lincoln, Nebr., USA) for 1 h and incubated with primary antibodies in blocking buffer: anti-frataxin (Mitosciences, Eugene, Oreg.) anti-β-actin (Sigma) for one hour. Cells were washed three times with 1× Tris-buffered saline with Tween 20, and then incubated with 100 ul/well of IRDye 680CW- and IRDye 800CW-coupled (Odyssey) secondary antibodies for 1 h. The cells were washed three times with 1× Tris-buffered saline with Tween 20 and signal was visualized with a LI-COR infrared imager (Odyssey). The pictures were processed by Odyssey version 3.0 infrared imaging software.

Q: For `O[C@@H](CS)[C@@H](O)CS` [DTT], which “reversal of sensitivity to diamide” value ([1]; frataxin deficient DRG cell line / Friedreich's patient fibroblasts) is on record?
A: Its value is “could be reversed”.

Q: How did the “death of neurons with frataxin deficiency on treatment” value [1] turn out when `CC(=O)OC[C@H]1O[C@@H]([S-])[C@H](OC(C)=O)[C@@H](OC(C)=O)[C@@H]1OC(C)=O.CCP(CC)CC.[Au+]` [auranofin] was run?
A: The value was “died more rapidly”.

Q: With `CN(C)C(=O)/N=N/C(=O)N(C)C` [diamide] as the compound, how does the “death of neurons with frataxin deficiency on treatment” value [1] read?
A: Its value is “died more rapidly”.

Q: With `COC(=O)/C=C/C(=O)OC` [dimethyl fumarate] as the compound, how does the “FXN expression in vivo, FXN/actin densitometry” value ([2]; 5 mg/kg daily intraperitoneal for 6 days, cerebellum, p<0.05) read?
A: Its value is 1.5-2 fold.

Q: What about the “frataxin in brains and other tissues of the animal model of FRDA” value (shortened to “frataxin in brains and other tissues”) [2] of the same compound?
A: Its value is “increased frataxin”.

Q: What about the “FXN induction in HeLa cells” value ([3]; 48 hr, 0.03-30 micromolar dimethyl fumarate, n=3) of the same compound?
A: The value was 1.37 fold.

Q: And the “significance of FXN induction by concentration” value ([3]; at 1, 10 and 30 micromolar dimethyl fumarate, 48 hr (FIG. 9C))?
A: The value was “Significant FXN induction”.

Q: What about the “Nrf2/ARE activity (ARE-luciferase)” value [4] of the same compound?
A: The value was “induced Nrf2/ARE activity”.

Q: And the “protection from diamide toxicity” value [5]?
A: The value was “neuroprotective; also recorded: dose-dependent”.

Q: And the EC50 [5]?
A: Its EC50 is 1.3 ± 0.8 µM.

Q: What about the “maximum effect of protection from diamide toxicity, fold increase from baseline” value [5] of the same compound?
A: The value was 1.9±0.2 fold.

Q: And the “FXN induction in FRDA lymphoblasts” value ([6]; 0.03-30 micromolar dimethyl fumarate, n=3)?
A: Its value is 2.4 fold.

Q: With `CCCCOc1ccc(C(=O)CCN2CCCCC2)cc1` [dyclonine] as the compound, how does the “FXN expression in vivo, FXN/actin densitometry” value ([2]; 1 mg/kg daily intraperitoneal for 6 days, cerebellum and splenocytes) read?
A: Its value is 1.5-2 fold.

Q: And the “frataxin in brains and other tissues” value [2]?
A: Its value is “increased frataxin”.

Q: What about the “frataxin expression in HeLa cells” value ([3]; 48 hr, 10 micromolar dyclonine, result in words) of the same compound?
A: The value was “Induces Frataxin Expression”.

Q: What about the “Nrf2/ARE activity (ARE-luciferase)” value [4] of the same compound?
A: Its value is “induced Nrf2/ARE activity”.

Q: What about the “dose dependence of induction of ARE/Nrf2 activity” value ([4]; FIG. 13B) of the same compound?
A: Its value is “dose-dependent”.

Q: What about the “potentiation of DMF FXN induction” value [7] of the same compound?
A: The value was “potentiated DMF FXN induction”.

Q: What about the “protection from diamide toxicity” value [5] of the same compound?
A: Its value is “protected FRDA cells from diamide induced oxidative stress; also recorded: dose dependent protection”.

Q: What about the “frataxin expression in FRDA lymphoblasts” value ([6]; 10 micromolar dyclonine, result in words) of the same compound?
A: The value was “Induces Frataxin Expression”.

Q: `CN(C)c1ccc2nc3ccc(=[N+](C)C)cc-3sc2c1` [methylene blue] was tested. Which “frataxin in brains and other tissues” value [2] did it give?
A: The value was “increased frataxin”.

Q: What about the “protection from diamide toxicity” value [5] of the same compound?
A: The value was “neuroprotective”.

Q: And the “potentiation of DMF-mediated FXN induction” value ([6]; 3 micromolar methylene blue with 3 micromolar dimethyl fumarate, Western blot)?
A: The value was “potentiates DMF FXN induction”.

Q: And the “Fold FXN induction in FRDA lymphoblasts” value ([6]; 10 nanomolar methylene blue, n=2)?
A: Its value is 1.7 fold.

Q: What does the source list for `O=C(N/N=C/c1ccc([N+](=O)[O-])o1)c1cc([N+](=O)[O-])cc([N+](=O)[O-])c1O` [nifursol]?
A: frataxin in brains and other tissues of the animal model of FRDA [2]: increased frataxin; protection from diamide toxicity [5]: neuroprotective

Q: How did the EC50 [5] turn out when `Cc1cc2nc3ccc(N(C)C)cc3[s+]c2cc1N` [tolonium cl] was run?
A: Its EC50 is 0.1 ± 0.01 µM.

Q: What about the “maximum effect of protection from diamide toxicity, fold increase from baseline” value [5] of the same compound?
A: Its value is 1.9±0.1 fold.

Q: How did the “Nrf2/ARE activity (ARE-luciferase)” value [4] turn out when mepartricin was run?
A: The value was “induced Nrf2/ARE activity”.
